Tested on: hairy mouse skin
Conditions: 2:1 nanoemulsion, aqueous phase 0.05 M HEPES pH 7.4; 5 μg/ml inulin or 3 μg/ml tranexamic acid, FIG. 9

## inulin
  marker permeation slope: 0.233 % per hour per square centimeter
